From patent US10987450B2, “Lyophilized moldable implants containing an oxysterol” (Warsaw Orthopedic, Inc., priority 2016, dated 2021)
Entries after “also recorded” stand apart in the source; their conditions may differ.

Columns and labels:
[1] = test system: C3H10T1/2 embryonic fibroblasts; conditions: cited from earlier work
[2] = test system: M2-10B4 (M2) marrow stromal cells; conditions: cited from earlier work
Mesenchymal stem cells = test: osteoblast differentiation of mesenchymal stem cells treated with Oxy133; assay type: cell-based
From the text: Thus, in some embodiments, a matrix comprising Oxy133 may be implanted into a spinal site with mesenchymal stem cells to induce bone growth through osteoblast differentiation. Periosteum tissue is one tissue type that is involved early during normal bone fracture repair process and can recruit various cell types (e.g., mesenchymal stem cells) and bone growth factors necessary for bone fracture repair. Thus, in some embodiments, periosteum tissue is utilized as a source of mesenchymal stem cells and/or growth factors in a demineralized bone composition.

[3] = solubility of Oxy133 in water; assay type: physicochemical
From the text: The Oxy133 can be solubilized in a non-aqueous solvent, such as for example, ethanol and mixed into a solution or suspension. In some embodiments, the Oxy133 can be filtered by passing the Oxy133 and solvent through a filter (e.g., 0.22 microns). This will remove bacteria and other larger-size particulates out of the composition. The Oxy133 used in the composition can be micronized before it is mixed with solvents and other excipients. In various embodiments, the particle size of the Oxy133 can range from about 1 micron to 250 microns. In some embodiments, the Oxy133 can have a particle size of from about 5 microns to about 100 microns or from about 20 to 50 microns. The Oxy133 in the solution or suspension can be added to a slurry of biodegradable polymer and/or the ceramic particles, mixed and, then dried.

rat spines = test: rat two-level spine model, implants in the posterolateral space, radiographs and manual palpation; assay type: in vivo; conditions: 4-week and 8-week time points
Experimental: FIG. 6 illustrates uses of a formulation of malleable implants having 20 mg of Oxy133 on each side of the implant, in accordance with the malleable implants described herein. […] A dry composition of a matrix containing Oxy133, collagen and ceramic as described herein was prepared and wetted with sterile water to be implanted in rat spines as shown in FIG. 6. The wetted matrix was cut in half with a razor blade to yield two halves. The two implants were molded into cylindrical shapes prior to insertion and were positioned bilaterally in the posterolateral space of each test subject. Each implant contained 20 mg Oxy133. Radiographs were taken roughly 10 minutes after the procedure, 4 weeks after the procedure, and 8 weeks after the procedure. […] Fusion was tested at 8-week sacrifice by manual palpation. […] A dry composition of a matrix containing Oxy133, collagen and ceramic as described herein was prepared and wetted with sterile water to be implanted in rat spines as shown in FIG. 6. The wetted matrix was cut in half with a razor blade to yield two halves. The two implants were molded into cylindrical shapes prior to insertion and were positioned bilaterally in the posterolateral space of each test subject. Each implant contained 125 mg Oxy133. Radiographs were taken roughly 10 minutes after the procedure, 4 weeks after the procedure, and 8 weeks after the procedure. […]

In the case of CC(C)CCC[C@](C)(O)[C@H]1CC[C@H]2[C@@H]3CC=C4C[C@@H](O)CC[C@]4(C)[C@H]3CC[C@@]21C [20(S)-hydroxycholesterol], the osteogenic differentiation [1] is listed as “induce osteogenic differentiation” and the osteogenic differentiation [2] is listed as “induce osteogenic differentiation”.
In the case of CC(C)CC[C@H](O)[C@@H](C)[C@H]1CC[C@H]2[C@@H]3CC=C4C[C@@H](O)CC[C@]4(C)[C@H]3CC[C@]12C [22(S)-, 22(S)-hydroxycholesterol], the osteogenic differentiation [1] is given as “induce osteogenic differentiation” and the osteogenic differentiation [2] is given as “induce osteogenic differentiation”.
For CC(C)CC[C@@H](O)[C@@H](C)[C@H]1CC[C@H]2[C@@H]3CC=C4C[C@@H](O)CC[C@]4(C)[C@H]3CC[C@]12C [22(R)-hydroxycholesterol], the osteogenic differentiation [1] is given as “induce osteogenic differentiation” and the osteogenic differentiation [2] is given as “induce osteogenic differentiation”.
In the case of CCCCCC[C@](C)(O)[C@H]1CC[C@H]2[C@@H]3C[C@H](O)[C@H]4C[C@@H](O)CC[C@]4(C)[C@H]3CC[C@@]21C [Oxy133, (3S,5S,6S,8R,9S,10R, 13S, 14S,17S) 17-((S)-2-hydroxyoctan-2-yl)-10,13-dimethylhexadecahydro-1H-cyclopenta[a]phenanthrene-3,6-diol], the osteoblast differentiation (Mesenchymal stem cells) is reported as “increased osteoblast differentiation”, the solubility in water [3] is reported as “only slightly soluble or insoluble” and the “bridging bone across the transverse processes of L3-L5 (radiographs)” value (rat spines; each implant 20 mg Oxy133) is reported as “Bone growth in rat test subjects can be seen; also recorded: promoted bridging bone”. The “bridging bone across the transverse processes of L3-L5 (radiographs)” value (rat spines; each implant 125 mg Oxy133) was “promoted bridging bone; also recorded: Bone growth in rat test subjects can be seen”.
